Assay results published in PMC10067623, “Characterization of an Aplysia vasotocin signaling system and actions of posttranslational modifications and individual residues of the ligand on receptor activity” (Frontiers in Pharmacology, 2023).
pEC50: −log10 of the molar value. Several values for one entry are separate records, joined by “and”; a condition that tells them apart may be missing. Identical values can stand only once. Entries after “also recorded” stand apart in the source; their conditions may differ. Like-named read-outs stand apart in the source and are kept apart here. Bridge positions count the residues as written; N and C are the ends. Peptide text beside a SMILES is read from it. * marks the point of attachment. Acm = CC(=O)NC*

Assays:
apVTR2 = experiment: IP1 accumulation assay, apVTR2 transiently expressed in CHO-K1 cells; format: cell-based, Aplysia californica; conditions: for apVTR2 log[EC50]: log[EC50] with negative sign as printed, average
apVTR1 = target: T1, apVTR1 (Aplysia californica, UniProt A0ABM1ABB6); experiment: cell-based; format: cell-based; conditions: for activation of apVTR1 (IP1 response), in words / apVTR1 log[EC50]: CHO-K1 cells, without promiscuous Gαq; for apVTR1 log[EC50]: log[EC50] with negative sign as printed, average, n = 3
T1 sequence (A0ABM1ABB6 1-470): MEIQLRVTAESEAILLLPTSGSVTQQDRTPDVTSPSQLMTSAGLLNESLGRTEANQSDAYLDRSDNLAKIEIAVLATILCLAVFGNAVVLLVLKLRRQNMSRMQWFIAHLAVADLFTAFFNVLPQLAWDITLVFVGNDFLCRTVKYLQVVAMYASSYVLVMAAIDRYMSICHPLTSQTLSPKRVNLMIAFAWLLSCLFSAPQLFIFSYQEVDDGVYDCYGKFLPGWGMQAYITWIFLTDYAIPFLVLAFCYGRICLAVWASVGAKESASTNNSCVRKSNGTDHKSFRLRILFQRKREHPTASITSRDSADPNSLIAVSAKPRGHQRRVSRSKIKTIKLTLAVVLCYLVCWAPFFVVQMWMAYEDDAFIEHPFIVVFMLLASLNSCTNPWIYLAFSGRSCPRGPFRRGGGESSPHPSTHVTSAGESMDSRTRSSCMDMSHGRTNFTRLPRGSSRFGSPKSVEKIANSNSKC

Class-A GPCR 3 = experiment: IP1 accumulation assay, Class-A GPCR 3 co-transfected with promiscuous Gαq (Gα16) in CHO-K1 cells; format: cell-based, Aplysia californica
[1] = CHO-K1 cells, without promiscuous Gαq, dose-response 10^-12 M to 10^-4 M, n = 3
[2] = n = 3, CHO-K1 cells, without promiscuous Gαq
[3] = co-transfected with promiscuous Gαq (Gα16), 10^-5 M vs 10^-10 M
[4] = CHO-K1 cells, without promiscuous Gαq
[5] = co-transfected with promiscuous Gαq, 10^-5 M vs 10^-10 M (control)

`CC(C)[C@@H]1NC(=O)[C@H](Cc2ccccc2)NC(=O)[C@@H](N)CSSC[C@@H](C(=O)N2CCC[C@H]2C(=O)N[C@H](C(=O)NCC(N)=O)[C@@H](C)O)NC(=O)[C@H](CC(N)=O)NC(=O)[C@H](CCCNC(=N)N)NC1=O` [Annetocin, reference compound] (H-CFVRNCPTG-NH2; disulfide 1-6) was tested, and the pEC50 (apVTR2; [1]) was 5.96, the “apVTR2 log[EC50]” value (apVTR2; [2]) was -6.0±0.20 M and the pEC50 (apVTR1; apVTR1 EC50) was 5.25. For the same compound, the pEC50 (apVTR1; apVTR1 log[EC50]) was 5.20 and the “activation of Class-A GPCR 3 (IP1 response), in words” value (Class-A GPCR 3; [3]) was “do not affect; also recorded: none of the four peptides had any effects”.

For `CC[C@H](C)[C@@H]1NC(=O)[C@H](Cc2ccc(O)cc2)NC(=O)[C@@H](N)CSSC[C@@H](C(=O)N2CCC[C@H]2C(=O)N[C@@H](CC(C)C)C(=O)NCC(N)=O)NC(=O)[C@H](CC(N)=O)NC(=O)[C@H](CCC(N)=O)NC1=O` [Oxytocin, reference compound], the “activation of apVTR2 (IP1 response), in words” value (apVTR2; [4]) was “weak activation effect”, the pEC50 (apVTR2; [1]) was 5.44 and the “apVTR2 log[EC50]” value (apVTR2; [2]) was -5.4±0.016 M. The “activation of apVTR1 (IP1 response), in words” value (apVTR1) was “weak activation effect”, the pEC50 (apVTR1; apVTR1 EC50) was 4.80 and the pEC50 (apVTR1; apVTR1 log[EC50]) was 4.80. For the same compound, the “activation of Class-A GPCR 3 (IP1 response), in words” value (Class-A GPCR 3; [3]) was “do not affect; also recorded: none of the four peptides had any effects”.

`C[C@@H]1NC(=O)[C@H](Cc2ccccc2)NC(=O)[C@@H](N)CSSC[C@@H](C(=O)N2CCC[C@H]2C(=O)N[C@@H](CCCCN)C(=O)NCC(N)=O)NC(=O)[C@H](CC(N)=O)NC(=O)[C@H](CCCNC(=N)N)NC1=O` [[Ala^3]apVT] (H-CFARNCPKG-NH2; disulfide 1-6) showed a pEC50 (apVTR1; apVTR1 EC50) of 4.52 and a pEC50 (apVTR1; apVTR1 log[EC50]) of 4.50.

With `CC[C@H](C)[C@@H]1NC(=O)[C@H](Cc2ccccc2)NC(=O)[C@@H](N)CSSC[C@@H](C(=O)N2CCC[C@H]2C(=O)N[C@@H](CCCCN)C(=O)NCC(N)=O)NC(=O)[C@H](C)NC(=O)[C@H](CCCNC(=N)N)NC1=O` [[Ala^5]apVT] (H-CFIRACPKG-NH2; disulfide 1-6) the pEC50 (apVTR1; apVTR1 EC50) was 5.22 and the pEC50 (apVTR1; apVTR1 log[EC50]) was 5.20.

`CC[C@H](C)[C@@H]1NC(=O)[C@H](Cc2ccccc2)NC(=O)[C@@H](N)CSSC[C@@H](C(=O)N[C@@H](C)C(=O)N[C@@H](CCCCN)C(=O)NCC(N)=O)NC(=O)[C@H](CC(N)=O)NC(=O)[C@H](CCCNC(=N)N)NC1=O` [[Ala^7]apVT] (H-CFIRNCAKG-NH2; disulfide 1-6) showed a pEC50 (apVTR1; apVTR1 EC50) of 5.96 and a pEC50 (apVTR1; apVTR1 log[EC50]) of 6.00.

`CC[C@H](C)[C@@H]1NC(=O)[C@H](Cc2ccccc2)NC(=O)[C@@H](N)CSSC[C@@H](C(=O)N2CCC[C@H]2C(=O)N[C@@H](C)C(=O)NCC(N)=O)NC(=O)[C@H](CC(N)=O)NC(=O)[C@H](CCCNC(=N)N)NC1=O` [[Ala^8]apVT] (H-CFIRNCPAG-NH2; disulfide 1-6) was tested, and the pEC50 (apVTR1; apVTR1 EC50) was 5.82 and the pEC50 (apVTR1; apVTR1 log[EC50]) was 5.80.

Compound `CC[C@H](C)[C@@H]1NC(=O)[C@H](Cc2ccccc2)NC(=O)[C@@H](N)CSSC[C@@H](C(=O)N2CCC[C@H]2C(=O)N[C@@H](CCCCN)C(=O)N[C@@H](C)C(N)=O)NC(=O)[C@H](CC(N)=O)NC(=O)[C@H](CCCNC(=N)N)NC1=O` [[Ala^9]apVT] (H-CFIRNCPKA-NH2; disulfide 1-6) has a pEC50 (apVTR1; apVTR1 EC50) of 6.00 and a pEC50 (apVTR1; apVTR1 log[EC50]) of 6.00.

With `CC[C@H](C)[C@H](NC(=O)[C@H](Cc1ccccc1)NC(=O)[C@@H](N)CSCNC(C)=O)C(=O)N[C@@H](CCCNC(=N)N)C(=O)N[C@@H](CC(N)=O)C(=O)N[C@@H](CSCNC(C)=O)C(=O)N1CCC[C@H]1C(=O)N[C@@H](CCCCN)C(=O)NCC(N)=O` [[Cys(Acm)^1,6]apVT] (H-C(Acm)FIRNC(Acm)PKG-NH2; N-terminus and C-terminus assumed) the pEC50 (apVTR2) was 4.33, the “apVTR2 log[EC50]” value (apVTR2; [2]) was -4.3±0.57 M and the pEC50 (apVTR1; apVTR1 EC50) was 4.92. The pEC50 (apVTR1; apVTR1 log[EC50]) was 4.90.

In the case of `CC[C@H](C)[C@H](NC(=O)[C@H](Cc1ccccc1)NC(=O)[C@@H](N)CSCNC(C)=O)C(=O)N[C@@H](CCCNC(=N)N)C(=O)N[C@@H](CC(N)=O)C(=O)N[C@@H](CS)C(=O)N1CCC[C@H]1C(=O)N[C@@H](CCCCN)C(=O)NCC(N)=O` [[Cys(Acm)^1]apVT] (H-C(Acm)FIRNCPKG-NH2; N-terminus assumed), the pEC50 (apVTR2) was 5.11, the “apVTR2 log[EC50]” value (apVTR2; [2]) was -5.1±0.21 M and the pEC50 (apVTR1; apVTR1 EC50) was 5.54. For the same compound, the pEC50 (apVTR1; apVTR1 log[EC50]) was 5.50.

With `CC[C@H](C)[C@H](NC(=O)[C@H](Cc1ccccc1)NC(=O)[C@@H](N)CS)C(=O)N[C@@H](CCCNC(=N)N)C(=O)N[C@@H](CC(N)=O)C(=O)N[C@@H](CSCNC(C)=O)C(=O)N1CCC[C@H]1C(=O)N[C@@H](CCCCN)C(=O)NCC(N)=O` [[Cys(Acm)^6]apVT] (H-CFIRNC(Acm)PKG-NH2; N-terminus assumed) the pEC50 (apVTR2) was 5.11, the “apVTR2 log[EC50]” value (apVTR2; [2]) was -5.1±0.21 M and the pEC50 (apVTR1; apVTR1 EC50) was 5.82. It also gave a pEC50 (apVTR1; apVTR1 log[EC50]) of 5.80.

`CC[C@H](C)[C@H](NC(=O)[C@H](Cc1ccccc1)NC(=O)[C@@H](N)CS)C(=O)N[C@@H](CCCNC(=N)N)C(=O)N[C@@H](CC(N)=O)C(=O)N[C@@H](CS)C(=O)N1CCC[C@H]1C(=O)N[C@@H](CCCCN)C(=O)NCC(=O)O` [apVT'-OH] (H-CFIRNCPKG-OH; N-terminus assumed) was tested, and the pEC50 (apVTR2) was 5.66, the “apVTR2 log[EC50]” value (apVTR2; [2]) was -5.6±0.18 M and the pEC50 (apVTR1; apVTR1 EC50) was 5.66. It also gave a pEC50 (apVTR1; apVTR1 log[EC50]) of 5.70.

In the case of `CC[C@H](C)[C@@H]1NC(=O)[C@H](Cc2ccccc2)NC(=O)[C@@H](N)CSSC[C@@H](C(=O)N2CCC[C@H]2C(=O)N[C@@H](CCCCN)C(=O)NCC(N)=O)NC(=O)[C@H](CC(N)=O)NC(=O)[C@H](CCCNC(=N)N)NC1=O` [apVT, Aplysia vasotocin] (H-CFIRNCPKG-NH2; disulfide 1-6; N-terminus assumed), the EC50 (apVTR2) was 0.077 µM and 0.07 µM, the “screening of apVTR2 activation (IP1 response), in words” value (apVTR2; [5]) was “responded” and the “apVTR2 log[EC50]” value (apVTR2; [2]) was -7.1±0.18 M. For the same compound, the “apVTR2 log[EC50]” value (apVTR2; n = 3, CHO-K1 cells, without promiscuous Gαq, listed as apVT') was -7.2±0.15 M, the “apVTR1 EC50” value (apVTR1) was 0.065 µM and the pEC50 (apVTR1; apVTR1 EC50) was 7.15. For the same compound, the “screening of apVTR1 activation (IP1 response), in words” value (apVTR1; [5]) was “responded”, the “apVTR1 log[EC50]” value (apVTR1) was -7.2±0.036 M and the “apVTR1 log[EC50]” value (apVTR1; listed as apVT') was -7.2±0.07 M. For the same compound, the “activation of Class-A GPCR 3 (IP1 response), in words” value (Class-A GPCR 3) was “no response; also recorded: not responsive”.

With `CC[C@H](C)[C@@H]1NC(=O)[C@H](Cc2ccccc2)NC(=O)[C@@H](N)CSSC[C@@H](C(=O)N2CCC[C@H]2C(=O)N[C@@H](CCCCN)C(=O)NCC(=O)O)NC(=O)[C@H](CC(N)=O)NC(=O)[C@H](CCCNC(=N)N)NC1=O` [apVT-OH] (H-CFIRNCPKG-OH; disulfide 1-6; N-terminus assumed) the pEC50 (apVTR2) was 6.00, the “apVTR2 log[EC50]” value (apVTR2; [2]) was -6.0±0.06 M and the pEC50 (apVTR1; apVTR1 EC50) was 5.46. It also gave a pEC50 (apVTR1; apVTR1 log[EC50]) of 5.50.

With AstC the “activation of Class-A GPCR 3 (IP1 response), in words” value (Class-A GPCR 3; [3]) was “not responsive to any of these”.

Urotensin II was tested, and the “activation of Class-A GPCR 3 (IP1 response), in words” value (Class-A GPCR 3; [3]) was “not responsive to any of these”.

Vasopressin [reference compound] was tested, and the “activation of apVTR2 (IP1 response), in words” value (apVTR2; [4]) was “no effects”, the “activation of apVTR1 (IP1 response), in words” value (apVTR1) was “no effects” and the “activation of Class-A GPCR 3 (IP1 response), in words” value (Class-A GPCR 3; [3]) was “none of the four peptides had any effects”. For the same compound, the “activation of Class-A GPCR 3 (IP1 response), in words” value (Class-A GPCR 3; co-transfected with promiscuous Gαq (Gα16), 10^-5 M vs 10^-10 M, listed as Vasopressin) was “do not affect”.
